Data from patent US20250270190A1, “KIT INHIBITORS” (BLUEPRINT MEDICINES CORPORATION, priority 2022, published 2025).
pIC50: −log10 of the molar value.

Biological target: T1, c-kit autophosphorylation (Phospho c-Kit Tyr721) in HMC 1.1 (exon 11/13) cells, V654A (Homo sapiens, UniProt P10721, V560G/V654A)
T1 construct: endogenous in cells; host or cells: HMC 1.1 (exon 11/13) cells
Experiment: pKIT Meso Scale Discovery (MSD) assay, inhibition of autophosphorylation of KIT, HMC1.1_V654A
Type: cell-based
Settings: Table 1, cell line not named for Table 1, b1056 names pKIT HMC1.1_V654A, read-out: Code (IC50 for inhibition of autophosphorylation of KIT, pKIT MSD assay)
How it was run: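 HMC1.1 cells were serum-starved for 4 h in serum-free, iron-free, phenol red-free IMDM, then treated with compound in dose-response for 90 min at 37 °C. Staurosporine and DMSO served as controls. Lysates were analysed by MSD electrochemiluminescence immunoassay for phospho-c-Kit Tyr721, and % inhibition of autophosphorylation was derived.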

T1 sequence (P10721 26-976 V560G/V654A): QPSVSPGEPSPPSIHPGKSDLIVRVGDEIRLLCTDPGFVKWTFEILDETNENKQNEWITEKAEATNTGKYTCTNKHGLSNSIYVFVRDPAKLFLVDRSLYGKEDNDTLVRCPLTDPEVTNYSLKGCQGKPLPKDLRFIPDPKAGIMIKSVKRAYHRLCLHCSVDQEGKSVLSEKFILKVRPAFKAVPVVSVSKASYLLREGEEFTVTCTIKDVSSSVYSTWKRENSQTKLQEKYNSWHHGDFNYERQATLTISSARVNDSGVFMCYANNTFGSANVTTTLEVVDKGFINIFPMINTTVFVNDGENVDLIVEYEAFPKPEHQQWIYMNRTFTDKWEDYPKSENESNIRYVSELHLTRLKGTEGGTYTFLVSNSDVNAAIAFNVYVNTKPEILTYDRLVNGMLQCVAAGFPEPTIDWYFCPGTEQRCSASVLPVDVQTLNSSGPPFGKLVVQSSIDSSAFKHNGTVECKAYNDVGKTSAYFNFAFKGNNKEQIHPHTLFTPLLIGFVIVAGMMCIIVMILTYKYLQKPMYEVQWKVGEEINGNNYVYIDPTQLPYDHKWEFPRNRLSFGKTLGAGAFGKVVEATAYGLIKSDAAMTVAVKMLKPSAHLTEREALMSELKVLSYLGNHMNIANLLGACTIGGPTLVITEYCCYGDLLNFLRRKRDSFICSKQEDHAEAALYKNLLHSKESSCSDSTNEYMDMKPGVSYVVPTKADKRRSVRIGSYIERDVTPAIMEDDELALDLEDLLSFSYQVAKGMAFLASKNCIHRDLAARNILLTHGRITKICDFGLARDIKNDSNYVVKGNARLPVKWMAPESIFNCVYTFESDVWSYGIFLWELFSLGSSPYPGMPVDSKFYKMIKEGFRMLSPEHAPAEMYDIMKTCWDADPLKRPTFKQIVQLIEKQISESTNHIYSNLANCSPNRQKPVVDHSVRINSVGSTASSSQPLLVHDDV

A pIC50 of under 7.40 was found for `CCNc1cc(Nc2cc(N)nc([C@@H](C)F)n2)ncc1C(=O)NC` [Compound 10, (R)-6-((6-amino-2-(1-fluoroethyl)pyrimidin-4-yl)amino)-4-(ethylamino)-N-methylnicotinamide] in this work.

A pIC50 of over 8.00 was found for `COc1cc(Nc2cc(N)nc(C(F)F)n2)ncc1-c1cnn(C[C@@H]2CCN2C)c1` (single isomer, unassigned) [Compound 139, (S)-2-(difluoromethyl)-N4-(4-methoxy-5-(1-((1-methylazetidin-2-yl)methyl)-1H-pyrazol-4-yl)pyridin-2-yl)pyrimidine-4,6-diamine or (R)-2-(difluoromethyl)-N4-(4-methoxy-5-(1-((1-methylazetidin-2-yl)methyl)-1H-pyrazol-4-yl)pyridin-2-yl)pyrimidine-4,6-diamine] in this work.

A pIC50 of 7.40 to 8.00 was found for `C[C@@H](CF)Nc1cc(Nc2cc(N)nc(C(F)F)n2)ncc1C(=O)NC12CC(CO)(C1)C2` [Compound 188, (S)-6-((6-amino-2-(difluoromethyl)pyrimidin-4-yl)amino)-4-((1-fluoropropan-2-yl)amino)-N-(3-(hydroxymethyl)bicyclo[1.1.1]pentan-1-yl)nicotinamide] in this work.

A pIC50 of over 8.00 was found for `CNC(=O)c1cnc(Nc2cc(N)nc(C(F)F)n2)cc1NCC(F)(F)F` [Compound 82, 6-((6-amino-2-(difluoromethyl)pyrimidin-4-yl)amino)-N-methyl-4-((2,2,2-trifluoroethyl)amino)nicotinamide] in this work.

A pIC50 of over 8.00 was found for `CNc1cc(Nc2cc(N)nc(C(F)F)n2)ncc1C(=O)NC(C)C` [Compound 29, 6-((6-amino-2-(difluoromethyl)pyrimidin-4-yl)amino)-N-isopropyl-4-(methylamino)nicotinamide] in this work.

A pIC50 of 7.40 to 8.00 was found for `Nc1cc(Nc2cc(OC3CC3)c(-c3cnn(C4CNC4)c3)cn2)nc(C(F)F)n1` [Compound 130, N4-(5-(1-(azetidin-3-yl)-1H-pyrazol-4-yl)-4-cyclopropoxypyridin-2-yl)-2-(difluoromethyl)pyrimidine-4,6-diamine] in this work.

A pIC50 of over 8.00 was found for `CNC(=O)c1cnc(Nc2cc(N)nc(C(F)F)n2)cc1NCC(C)C` [Compound 43, 6-((6-amino-2-(difluoromethyl)pyrimidin-4-yl)amino)-4-(isobutylamino)-N-methylnicotinamide] in this work.

A pIC50 of over 8.00 was found for “6-((6-amino-2-(difluoromethyl)pyrimidin-4-yl)amino)-N-methyl-4-((4-methyltetrahydro-2H-pyran-4-yl)amino)nicotinamide [Compound 125]” in this work.

A pIC50 of over 8.00 was found for `CC(O)Cn1cc(-c2cnc(Nc3cc(N)nc(C(F)F)n3)cc2OC(F)F)cn1` (stereo not shown) [Compound 155, 1-(4-(6-((6-amino-2-(difluoromethyl)pyrimidin-4-yl)amino)-4-(difluoromethoxy)pyridin-3-yl)-1H-pyrazol-1-yl)propan-2-ol] in this work.

A pIC50 of over 8.00 was found for `Nc1cc(Nc2cc(OC3CC3)c(-c3cnn([C@H]4CCOC4)c3)cn2)nc(C(F)F)n1` (single isomer, unassigned) [Compound 164, (S)—N4-(4-cyclopropoxy-5-(1-(tetrahydrofuran-3-yl)-1H-pyrazol-4-yl)pyridin-2-yl)-2-(difluoromethyl)pyrimidine-4,6-diamine or (R)—N4-(4-cyclopropoxy-5-(1-(tetrahydrofuran-3-yl)-1H-pyrazol-4-yl)pyridin-2-yl)-2-(difluoromethyl)pyrimidine-4,6-diamine] in this work.

A pIC50 of 7.40 to 8.00 was found for `CCOc1cc(Nc2cc(N)nc(C(F)F)n2)ncc1-c1cnn(C2CNC2)c1` [Compound 98, N4-(5-(1-(azetidin-3-yl)-1H-pyrazol-4-yl)-4-ethoxypyridin-2-yl)-2-(difluoromethyl)pyrimidine-4,6-diamine] in this work.

A pIC50 of over 8.00 was found for `CCOc1cc(Nc2cc(N)nc(C(F)F)n2)ncc1-c1cnn(CC(C)(C)O)c1` [Compound 152, 1-(4-(6-((6-amino-2-(difluoromethyl)pyrimidin-4-yl)amino)-4-ethoxypyridin-3-yl)-1H-pyrazol-1-yl)-2-methylpropan-2-ol] in this work.

A pIC50 of under 7.40 was found for `CNC(=O)c1cnc(Nc2cc(N)nc(CF)n2)cc1N[C@@H]1CCOC1` [Compound 35, (R)-6-((6-amino-2-(fluoromethyl)pyrimidin-4-yl)amino)-N-methyl-4-((tetrahydrofuran-3-yl)amino)nicotinamide] in this work.

A pIC50 of 7.40 to 8.00 was found for `N#CCNC(=O)c1cnc(Nc2cc(N)nc(C(F)F)n2)cc1NC1CC1` [Compound 54, 6-((6-amino-2-(difluoromethyl)pyrimidin-4-yl)amino)-N-(cyanomethyl)-4-(cyclopropylamino)nicotinamide] in this work.

A pIC50 of 7.40 to 8.00 was found for `CNc1cc(Nc2cc(N)nc(C(F)F)n2)ncc1C(=O)NCc1ccccn1` [Compound 93, 6-((6-amino-2-(difluoromethyl)pyrimidin-4-yl)amino)-4-(methylamino)-N-(pyridin-2-ylmethyl)nicotinamide] in this work.

A pIC50 of over 8.00 was found for `CC(C)(O)Cn1cc(-c2cnc(Nc3cc(N)nc(C(F)F)n3)cc2OC(F)F)cn1` [Compound 181, 1-(4-(6-((6-amino-2-(difluoromethyl)pyrimidin-4-yl)amino)-4-(difluoromethoxy)pyridin-3-yl)-1H-pyrazol-1-yl)-2-methylpropan-2-ol] in this work.

A pIC50 of over 8.00 was found for `[2H]C([2H])([2H])Nc1cc(Nc2cc(N)nc(C(F)F)n2)ncc1C(=O)NC` [Compound 5, 6-((6-amino-2-(difluoromethyl)pyrimidin-4-yl)amino)-N-methyl-4-((methyl-d3)amino)nicotinamide] in this work.

A pIC50 of 7.40 to 8.00 was found for `COc1cc(Nc2cc(N)nc(C(F)F)n2)ncc1-c1cnn(C(F)(F)F)c1` [Compound 94, 2-(difluoromethyl)-N4-(4-methoxy-5-(1-(trifluoromethyl)-1H-pyrazol-4-yl)pyridin-2-yl)pyrimidine-4,6-diamine] in this work.

A pIC50 of over 8.00 was found for `CCNc1cc(Nc2cc(N)nc(C(F)F)n2)ncc1C(=O)NCc1cocn1` [Compound 113, 6-((6-amino-2-(difluoromethyl)pyrimidin-4-yl)amino)-4-(ethylamino)-N-(oxazol-4-ylmethyl)nicotinamide] in this work.

A pIC50 of under 7.40 was found for `CNC(=O)c1cnc(Nc2cc(N)nc(CF)n2)cc1NC1COC1` [Compound 19, 6-((6-amino-2-(fluoromethyl)pyrimidin-4-yl)amino)-N-methyl-4-(oxetan-3-ylamino)nicotinamide] in this work.

A pIC50 of 7.40 to 8.00 was found for `C[C@H](CF)Nc1cc(Nc2cc(N)nc(C(F)F)n2)ncc1C(=O)NCc1ccccn1` [Compound 187, (R)-6-((6-amino-2-(difluoromethyl)pyrimidin-4-yl)amino)-4-((1-fluoropropan-2-yl)amino)-N-(pyridin-2-ylmethyl)nicotinamide] in this work.

A pIC50 of over 8.00 was found for `CCOc1cc(Nc2cc(N)nc(C(F)F)n2)ncc1-c1cnn(C2CN(C)C2)c1` [Compound 141, 2-(difluoromethyl)-N4-(4-ethoxy-5-(1-(1-methylazetidin-3-yl)-1H-pyrazol-4-yl)pyridin-2-yl)pyrimidine-4,6-diamine] in this work.

A pIC50 of under 7.40 was found for `Cc1noc(-c2cnc(Nc3cc(N)nc(C(F)F)n3)cc2NC(C)C)n1` [Compound 58, 2-(difluoromethyl)-N4-(4-(isopropylamino)-5-(3-methyl-1,2,4-oxadiazol-5-yl)pyridin-2-yl)pyrimidine-4,6-diamine] in this work.

A pIC50 of 7.40 to 8.00 was found for `COc1cc(Nc2cc(N)nc(C(F)F)n2)ncc1-c1cnn(CCN2CCC2)c1` [Compound 137, N4-(5-(1-(2-(azetidin-1-yl)ethyl)-1H-pyrazol-4-yl)-4-methoxypyridin-2-yl)-2-(difluoromethyl)pyrimidine-4,6-diamine] in this work.

A pIC50 of over 8.00 was found for `COc1cc(Nc2cc(N)nc(C(F)F)n2)ncc1-c1cnn(CCNCC(F)(F)F)c1` [Compound 197, 2-(difluoromethyl)-N4-(4-methoxy-5-(1-(2-((2,2,2-trifluoroethyl)amino)ethyl)-1H-pyrazol-4-yl)pyridin-2-yl)pyrimidine-4,6-diamine] in this work.

A pIC50 of 7.40 to 8.00 was found for `CNc1cc(Nc2cc(N)nc(C(F)F)n2)ncc1-c1cnn(C)n1` [Compound 18, 2-(difluoromethyl)-N4-(5-(2-methyl-2H-1,2,3-triazol-4-yl)-4-(methylamino)pyridin-2-yl)pyrimidine-4,6-diamine] in this work.

A pIC50 of over 8.00 was found for `CNCCn1cc(-c2cnc(Nc3cc(N)nc(C(F)F)n3)cc2OC2CC2)cn1` [Compound 136, N4-(4-cyclopropoxy-5-(1-(2-(methylamino)ethyl)-1H-pyrazol-4-yl)pyridin-2-yl)-2-(difluoromethyl)pyrimidine-4,6-diamine] in this work.

A pIC50 of 7.40 to 8.00 was found for `CCOc1cc(Nc2cc(N)nc(C(F)F)n2)ncc1-c1cnn(CCN)c1` [Compound 81, N4-(5-(1-(2-aminoethyl)-1H-pyrazol-4-yl)-4-ethoxypyridin-2-yl)-2-(difluoromethyl)pyrimidine-4,6-diamine] in this work.

A pIC50 of over 8.00 was found for `CC(C)Oc1cc(Nc2cc(N)nc([C@H](C)F)n2)ncc1-c1cnn([C@@H]2CCOC2)c1` (single isomer, unassigned) [Compound 156, 2-((S)-1-fluoroethyl)-N4-(4-isopropoxy-5-(1-((R)-tetrahydrofuran-3-yl)-1H-pyrazol-4-yl)pyridin-2-yl)pyrimidine-4,6-diamine or 2-((S)-1-fluoroethyl)-N4-(4-isopropoxy-5-(1-((S)-tetrahydrofuran-3-yl)-1H-pyrazol-4-yl)pyridin-2-yl)pyrimidine-4,6-diamine] in this work.

A pIC50 of over 8.00 was found for `CC(C)Oc1cc(Nc2cc(N)nc([C@H](C)F)n2)ncc1-c1cnn(C)c1` [Compound 51, (S)-2-(1-fluoroethyl)-N4-(4-isopropoxy-5-(1-methyl-1H-pyrazol-4-yl)pyridin-2-yl)pyrimidine-4,6-diamine] in this work.

A pIC50 of over 8.00 was found for `CC(C)Nc1cc(Nc2cc(N)nc(C(F)F)n2)ncc1C(=O)NCc1cocn1` [Compound 147, 6-((6-amino-2-(difluoromethyl)pyrimidin-4-yl)amino)-4-(isopropylamino)-N-(oxazol-4-ylmethyl)nicotinamide] in this work.
